# Data reported in PMC5677366, “Cyclic di-GMP differentially tunes a bacterial flagellar motor through a novel class of CheY-like regulators” (eLife, 2017).
# Entries after “also recorded” stand apart in the source; their conditions may differ.
# Legend:
# His-CleD (aa 19–269) = His-CleD (aa 19–269) (Caulobacter vibrioides, UniProt Q9A3V2); assay: Microscale thermophoresis (MST); type: binding, Caulobacter crescentus
# Method: (§1) MST experiments were carried out in a Monolith NT.115 device using standard treated capillaries (NanoTemper Technologies). Fluorescence changes resulting from thermophoresis were recorded using blue channel optics of the instrument (λex = 470 ± 15 nm, λem = 520 ± 10 nm) for the 30 s period of infrared laser heating at 40% of maximum laser power followed by a 5 s of cooling period. Measurements were performed in a buffer containing 50 mM Tris-HCl, pH 8.0, 100 mM NaCl, 5 mM MgCl2, 1 mM DTT and 0.1% Tween 20. 2'-O-(6-[Fluoresceinyl]aminohexylcarbamoyl)-cyclic diguanosine monophosphate (2’fluo-AHC-c-di-GMP, Biolog, Bremen, Germany) was added to probe the binding affinity of CleD domains. A 16-point 1:1 serial dilution series of proteins was titrated against a fixed concentration (60 nM) of 2’fluo-AHC-c-di-GMP. Data were evaluated in the program ProFit (Quansoft, Zurich, Switzerland) and fitted using the Hill equation.
# His-CleD (aa 19–262) = His-CleD (aa 19–262) (Caulobacter vibrioides, UniProt Q9A3V2); assay: MST; type: binding, Caulobacter crescentus; settings: 60 nM ligand; variant lacking part of the CTR
# Sequence of His-CleD (aa 19–262) (Q9A3V2 entry or part of it): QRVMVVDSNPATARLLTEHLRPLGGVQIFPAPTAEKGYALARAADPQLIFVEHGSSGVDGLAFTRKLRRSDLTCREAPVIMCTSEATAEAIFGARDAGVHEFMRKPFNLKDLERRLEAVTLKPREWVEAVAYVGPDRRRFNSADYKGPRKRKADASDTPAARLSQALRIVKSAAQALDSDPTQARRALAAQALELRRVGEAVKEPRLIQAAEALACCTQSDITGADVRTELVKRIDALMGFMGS
# Method: as §1
# His-CleD-rec (aa 19–141) = His-CleD-rec (aa 19–141) (Caulobacter vibrioides, UniProt Q9A3V2); assay: MST; type: binding, Caulobacter crescentus
# Sequence of His-CleD-rec (aa 19–141) (Q9A3V2 entry or part of it): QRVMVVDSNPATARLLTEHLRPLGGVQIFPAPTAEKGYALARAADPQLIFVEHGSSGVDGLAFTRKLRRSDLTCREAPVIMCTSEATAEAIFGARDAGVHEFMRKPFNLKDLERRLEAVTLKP
# Method: as §1
# [1] = target: His-CleD-rec-ARR (aa 19–174) (Caulobacter vibrioides, UniProt Q9A3V2); assay: MST; type: binding, Caulobacter crescentus
# Sequence of His-CleD-rec-ARR (aa 19–174) (Q9A3V2 entry or part of it): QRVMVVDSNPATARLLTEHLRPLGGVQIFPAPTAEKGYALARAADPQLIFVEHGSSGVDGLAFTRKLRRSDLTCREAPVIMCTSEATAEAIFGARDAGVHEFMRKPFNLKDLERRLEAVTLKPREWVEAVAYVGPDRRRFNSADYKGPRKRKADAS
# Method: as §1
# His-SUMO R156A ARRCleD = assay: MST; type: binding, Caulobacter crescentus
# Method: as §1
# His-SUMO R169A ARRCleD = His-SUMO R169A ARRCleD (Caulobacter vibrioides, UniProt Q9A3V2, R169A); assay: MST; type: binding, Caulobacter crescentus
# Sequence of His-SUMO R169A ARRCleD (Q9A3V2 entry or part of it R169A): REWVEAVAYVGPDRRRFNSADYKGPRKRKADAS
# Method: as §1
# [2] = tested on: isolated ARR of CleA fused to His-SUMO; assay: MST; type: binding, Caulobacter crescentus
# Method: as §1
# [3] = target: EcCheY-ARR with R156A mutant ARR (Caulobacter vibrioides, UniProt Q9A3V2, R156A); assay: MST; type: binding, E. coli; settings: read-out: apparent Kd
# Sequence of EcCheY-ARR with R156A mutant ARR (Q9A3V2 entry or part of it R156A): as the sequence (Q9A3V2 entry or part of it R169A) above
# Sequence of EcCheY-ARR with R156A mutant ARR (P0AE67 2-129, further chain): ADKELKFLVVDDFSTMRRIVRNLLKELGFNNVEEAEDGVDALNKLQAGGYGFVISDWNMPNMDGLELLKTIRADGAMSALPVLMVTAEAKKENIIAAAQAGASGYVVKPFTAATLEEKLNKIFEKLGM
# Method: as §1
# His-CheY = target: T1, His-CheY (Escherichia coli, UniProt P0AE67); assay: MST; type: binding, E. coli
# T1 construct: made in house; host or cells: E. coli BL21 (DE3)
# T1 sequence (P0AE67 whole entry): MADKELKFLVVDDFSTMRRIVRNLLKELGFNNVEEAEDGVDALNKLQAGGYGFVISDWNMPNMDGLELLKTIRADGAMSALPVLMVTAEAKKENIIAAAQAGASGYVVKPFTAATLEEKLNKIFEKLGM
# Method: as §1
# [4] = target: EcCheY-ARR (wild-type ARR of CleD fused to E. coli CheY) (Caulobacter vibrioides, UniProt Q9A3V2); assay: MST; type: binding; settings: read-out: apparent Kd
# Sequence of EcCheY-ARR (wild-type ARR of CleD fused to E. coli CheY) (P0AE67 2-129): as the sequence (P0AE67 2-129, further chain) above
# Sequence of EcCheY-ARR (wild-type ARR of CleD fused to E. coli CheY) (Q9A3V2 entry or part of it): as the sequence (Q9A3V2 entry or part of it R169A) above
# Method: as §1
# His-SUMO = target: T2, His-SUMO (Saccharomyces cerevisiae, UniProt Q12306); assay: MST; type: binding
# T2 construct: made in house; host or cells: E. coli BL21 (DE3)
# T2 sequence (Q12306 whole entry): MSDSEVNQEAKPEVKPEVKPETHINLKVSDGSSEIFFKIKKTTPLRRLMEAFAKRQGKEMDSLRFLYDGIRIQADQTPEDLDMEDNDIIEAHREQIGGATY
# Method: as §1
# StrepII-CleD [5] = target: T3, StrepII-CleD (Caulobacter vibrioides, UniProt Q9A3V2); assay: UV cross-linking competition with non-labeled nucleotides; type: binding, Caulobacter crescentus; settings: 1 µM StrepII-CleD, 0.25 µM 33P-labelled c-di-GMP
# T3 sequence (Q9A3V2 entry or part of it): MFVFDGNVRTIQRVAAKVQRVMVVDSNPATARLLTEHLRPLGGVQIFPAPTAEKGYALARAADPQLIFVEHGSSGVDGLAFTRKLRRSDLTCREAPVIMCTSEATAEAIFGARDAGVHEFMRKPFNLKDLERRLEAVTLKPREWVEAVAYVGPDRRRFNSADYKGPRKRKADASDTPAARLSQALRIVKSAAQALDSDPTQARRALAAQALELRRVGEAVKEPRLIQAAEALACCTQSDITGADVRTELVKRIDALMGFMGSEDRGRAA
# Method: Synthesis of radiolabeled c-di-GMP using YdeH and UV light-induced cross-linking experiments in conical 96-well plates (Greiner Bio-One) were performed as described recently ([Steiner et al., 2013]; [Christen et al., 2005]). […] As a control BSA was included. For competition experiments unlabeled nucleotides were incubated with the protein for 15 min prior the addition of c-[^33P] -di-GMP. The 96-well plates were then UV-irradiated at 254 nm for 20 min using a Bio-Link crosslinker (Vilber Lourmat, France). After addition of 5 μl loading dye and boiling for 5 min the samples were subjected to SDS-PAGE. Proteins were analyzed by Coomassie staining and autoradiography. Band intensities were quantified using the ImageJ64 software and the data were fitted using GraphPad Prism version 5.04 for Windows (GraphPad Software, San Diego California USA). The Kd was calculated by non-linear regression using the ‘One site – Total binding’ equation.
# StrepII-CleD [6] = target: T3, StrepII-CleD; assay: UV cross-linking with radiolabeled c-di-GMP; type: binding, Caulobacter crescentus
# Method: Synthesis of radiolabeled c-di-GMP using YdeH and UV light-induced cross-linking experiments in conical 96-well plates (Greiner Bio-One) were performed as described recently ([Steiner et al., 2013]; [Christen et al., 2005]). Briefly, 2 μM protein was incubated for 10 min at room temperature with c-[^33P]-di-GMP in a total volume of 20 μl using PBS as buffer. As a control BSA was included. For competition experiments unlabeled nucleotides were incubated with the protein for 15 min prior the addition of c-[^33P] -di-GMP. The 96-well plates were then UV-irradiated at 254 nm for 20 min using a Bio-Link crosslinker (Vilber Lourmat, France). After addition of 5 μl loading dye and boiling for 5 min the samples were subjected to SDS-PAGE. Proteins were analyzed by Coomassie staining and autoradiography. Band intensities were quantified using the ImageJ64 software and the data were fitted using GraphPad Prism version 5.04 for Windows (GraphPad Software, San Diego California USA). The Kd was calculated by non-linear regression using the ‘One site – Total binding’ equation.
# CleD-GFP [7] = target: T4, CleD-GFP (Caulobacter vibrioides, UniProt Q9A3V2); assay: Isothermal titration calorimetry (ITC); type: binding, Caulobacter crescentus; settings: ITC at 10°C
# T4 sequence (Q9A3V2 entry or part of it): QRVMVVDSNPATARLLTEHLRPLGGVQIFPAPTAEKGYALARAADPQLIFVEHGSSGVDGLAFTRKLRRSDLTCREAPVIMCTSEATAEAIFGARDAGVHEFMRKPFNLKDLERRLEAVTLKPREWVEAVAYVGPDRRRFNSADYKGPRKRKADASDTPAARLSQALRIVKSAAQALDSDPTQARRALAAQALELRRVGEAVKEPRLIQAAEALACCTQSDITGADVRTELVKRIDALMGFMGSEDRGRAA
# Method: (§2) ITC experiments were performed on a VP-ITC MicroCalorimeter (MicroCal, Northampton, MA, USA). Protein samples, c-di-GMP and buffer (50 mM Tris-HCl, pH 8.0, 100 mM NaCl, 5 mM MgCl2, 1 mM DTT) were degassed for 15 min prior to filling into sample cell and syringe. The sample cell contained 7.4 µM of His-CleD-GFP and the syringe contained 69.7 µM of cdG. The concentrations were determined in a spectrophotometer using a cuvette with 1 cm path length. All experiments were carried out at 10 °C with 30 injections (10 µl each) with a 250 s interval. Stir rate was 300 rpm. The data were evaluated using ITC Data Analysis in ORIGIN (MicroCal) provided by the manufacturer. The area under each peak was integrated and fitted using the built-in one-site model by non-linear least squares regression analysis.
# His-CleD_R113A-GFP = His-CleD_R113A-GFP (Caulobacter vibrioides, UniProt Q9A3V2, R113A); assay: ITC with R113A mutant; type: binding, Caulobacter crescentus
# Method: as §2
# [8] = tested on: R156A mutant variant of CleD-GFP; assay: ITC with R156A mutant; type: binding, Caulobacter crescentus
# Method: as §2
# CleD-GFP [9] = target: T4, CleD-GFP; assay: 1H-NMR Jump-return imino proton spectra; type: binding, Caulobacter crescentus; settings: difference spectrum with and without c-di-GMP, four imino H1 resonances
# Method: NMR spectra were recorded at 298 K on Bruker DRX 600, and DRX 900 NMR spectrometers equipped with TXI and TCI probe heads, respectively. The one dimensional NMR spectra were recorded with a Jump-return echo sequence ([Sklenár et al., 1987]) optimized for resonances at around 12 ppm. For the complex His-CleD-GFP·c-di-GMP and apo His-CleD-GFP 16384 scans were recorded. The NMR samples were prepared as follows. The sample of apo His-CleD-GFP (30 μM) was prepared in 100 mM NaCl, 20 mM sodium phosphate buffer at pH 6.5, 0.01% NaN3 (w/v), and 5% (v/v) D2O as sample volume of 250 μL. Complex CleD-GFP·c-di-GMP: the ligand was titrated to the apo His-CleD-GFP sample from a 20 mM stock solution in twofold excess.
# CleD = assay: 1H-15N HSQC NMR of 15N-CleD with FliM peptides; type: binding, Caulobacter crescentus
# Method: The standard two-dimensional spectra ^1H-^15N HSQC of His-CleD with or without peptides were performed on a ^15N isotope labeled His-CleD. The His-CleD (400 µM) sample was in 20 mM sodium phosphate buffer at pH 7.0, 200 mM NaCl, 1 mM MgCl2, 5 mM 2-Mercaptoethanol, 0.02% NaN3 (w/v), and 5% (v/v) D2O with a sample volume of 270 μL. c-di-GMP was titrated to the protein sample in 2.5-fold excess. The FliM peptide from residue Ala47 to Gly62 contains an additional Trp at the N-terminus to measure concentration and to increase solubility (WASERILNQDEIDSLLG). As the corresponding ID57_WA peptide contains a Trp we used the following sequence ASERILNQDEWASLLG. Both peptides were purchased from JPT Peptide Technologies, and dissolved in 200 mM NaCl, 20 mM sodium phosphate buffer at pH 7.0, 1 mM MgCl2, 5 mM β-Mercaptoethanol, 0.02%NaN3 (w/v), and 5% (v/v) D2O. With homonuclear 2D-TOCSY and 2D-NOESY experiments the peptide proton resonances were assigned. It was confirmed, that both peptides were stable in this buffer and unfolded (data not shown). The spectrum of the purified CleD protein was recorded in the same buffer as the FliM peptides.
molecule,measurement,setting,value
2'-O-(6-[Fluoresceinyl]aminohexylcarbamoyl)-cyclic diguanosine monophosphate [flr-cdG],Kd,His-CleD (aa 19–269); 60 nM ligand,1200 nM
same,Kd relative to affinities determined for c-di-GMP itself,His-CleD (aa 19–269); full-length CleD and variant lacking part of the CTR,roughly 10 fold
same,Kd,His-CleD (aa 19–262),1300 nM
same,dissociation constant relative to full-length protein,His-CleD-rec (aa 19–141),40 fold
same,Kd,His-CleD-rec (aa 19–141); 60 nM ligand,41700 nM
same,dissociation constant relative to full-length protein,[1],5 fold
same,Kd,[1]; 60 nM ligand,6200 nM
same,binding (in words),His-SUMO R156A ARRCleD,strongly reduced binding; also recorded: completely abolished
same,reduction of binding relative to wild-type ARR,His-SUMO R169A ARRCleD,about 5 fold
same,binding (in words),[2],failed to bind
same,Kd,[3],471000 nM
same,binding (in words),His-CheY,failed to bind
same,Kd,[4],14800 nM
same,binding (in words),His-SUMO,not SUMO itself were able to bind flr-cdG
Nc1nc2c(ncn2[C@@H]2O[C@H](COP(=O)(O)OP(=O)(O)OP(=O)(O)O)[C@@H](O)[C@H]2O)c(=O)[nH]1 [GTP],"concentration required for a similar reduction of 33P-labelled c-di-GMP binding, relative to non-labeled c-di-GMP",StrepII-CleD [5],1000 fold
"Nc1nc2c(ncn2[C@@H]2O[C@@H]3COP(=O)(O)O[C@H]4[C@@H](O)[C@H](n5cnc6c(=O)[nH]c(N)nc65)O[C@@H]4COP(=O)(O)O[C@H]3[C@H]2O)c(=O)[nH]1 [c-di-GMP, Cyclic di-GMP]",Kd,StrepII-CleD [6],212 nM
same,binding (in words),"StrepII-CleD [6]; purified Strep-tagged CleD, radiolabeled c-di-GMP",high affinity binding in the nanomolar range
same,Kd,CleD-GFP [7],86 nM
same,Kd,His-CleD_R113A-GFP,221 nM
same,increase of the Kd as compared to wild-type CleD,His-CleD_R113A-GFP; ITC,3 fold
same,binding (in words),[8],completely abolished
same,binding stoichiometry,CleD-GFP [9],two molecules of c-di-GMP are bound to one CleD protomer; also recorded: one c-di-GMP dimer to one protein monomer
same,competition with labeled probe for binding (in words),StrepII-CleD [5],effectively compete; also recorded: equimolar amounts of non-labeled c-di-GMP reduced binding
Nc1nc2c(ncn2[C@@H]2O[C@H](COP(=O)(O)O[C@H]3[C@@H](O)[C@H](n4cnc5c(=O)[nH]c(N)nc54)O[C@@H]3COP(=O)(O)O)[C@@H](O)[C@H]2O)c(=O)[nH]1 [pGpG],"concentration required for a similar reduction of 33P-labelled c-di-GMP binding, relative to non-labeled c-di-GMP",StrepII-CleD [5],1000 fold
"ASERILNQDEWASLLG [FliM_ID57WA mutant peptide, FliM residues 47–62 peptide with ID57WA substitution]",HSQC spectrum change (in words),CleD; with c-di-GMP,indistinguishable from the spectrum recorded for CleD alone
"WASERILNQDEIDSLLG [FliM wild-type peptide, FliM peptide from residue Ala47 to Gly62 with an additional Trp at the N-terminus]",number of CleD resonances with shift changes,"CleD; in the presence of c-di-GMP, peptide in two-fold excess",approximately 10 resonances
same,HSQC spectrum change (in words),CleD; without c-di-GMP,indistinguishable from the spectrum recorded for CleD alone
